# Laboratory results from PMC9458062, “^131I-C19 Iodide Radioisotope and Synthetic I-C19 Compounds as K-Ras4B–PDE6δ Inhibitors: A Novel Approach against Colorectal Cancer—Biological Characterization, Biokinetics and Dosimetry” (Molecules, 2022).
# How the values were obtained:
# [1] = test system: bone marrow polychromatic erythrocytes; test: Genotoxicity, bone marrow micronucleus assay; conditions: 24 h, per 2000 PCEs (vehicle 7 ± 2)
# Protocol: The test compounds were intraperitoneally administered once, as a solution, at a concentration of 15 mg/kg of 5-fluorouracil (5-Fu) and 30 mg/kg of C19 or I-C19. Bone marrow cells were obtained 24 h after treatment and stained with Giemsa-Wright (Diff-Quick; Harleco; Gibbstown, NJ, USA). Two-thousand polychromatic erythrocytes were counted per animal using an optical microscope at 100× magnification to determine the number of micronucleated polychromatic erythrocytes.
# [2] = test system: colon adenocarcinoma; test: AOM/DSS colorectal cancer mouse model; type: in vivo, C57BL/6 male mice; conditions: AOM/DSS mice
# Protocol: Aberrant glands formed these lesions, and the cells that formed them presented atypical nuclei with evident nucleoli and loss of mucus production. The percentage of mice colorectal tissue affected with these lesions was considered as the percentage of colon adenocarcinoma in mice.
# Six-week-old C57BL/6 male mice, with a weight of approximately 20 g, were intraperitoneally injected with a single dose of azoxymethane (AOM) (10 mg/kg). […] For the control group, the same procedure was performed with normal intraperitoneal saline and pure drinking water instead of the AOM/DSS treatment.
# Paraffin sections of colon tumor samples were deparaffinized in xylene and rehydrated in a series of graded alcohols. Antigens were retrieved in 0.01 M sodium citrate buffer and 0.1M EDTA-Tris buffer (Novocastra™ Epitope Retrieval Solutions, cat. RE7113; Leica Biosystems). Samples were incubated in 0.9% H2O2 for 5 min, followed by 1 h of blocking in 1% BSA in PBS. […] Then, the samples were developed with the Betazoid DAB Chromogen Kit (Cat. BDB2004H; BIOCARE Medical), counter-stained with hematoxylin and mounted with synthetic resin solution (Entallan.107960; Merck).
# [3] = test system: CCD-18Co; design: method as in PMID 30382908; conditions: CCD-18Co healthy cell line; cited from earlier work
# [4] = test system: micronuclei; conditions: mice, 30 mg/kg; cited from earlier work
# [5] = test system: CMT93 (mice colorectal cancer) allograft tumors; design: method as in PMID 19569179; conditions: 30 min post-injection; cited from earlier work
# [6] = test system: HCT116; test: XTT cell viability; type: cell-based, human; conditions: HCT116, 8.8 µM, 1.44 Bq/cell, 72 h
# Protocol: (§1) The human CRC cell lines, LoVo (ATCC® CCL-229™), SW620 (ATCC® CCL-227™) and HCT116 (ATCC® CCL-247™), were acquired from ATCC and cultured in F12K medium (Kaighn’s Modification of Ham’s F-12 Medium), DMEM-F12 medium and RPMI-1640 medium, (ATCC, Manassas, VA, USA), respectively. The human colorectal fibroblast CCD-18Co line was grown in an EMEM medium (ATCC, Manassas, VA, USA). The media were added with 10% fetal bovine serum and a 1% penicillin/streptomycin solution. Cells were incubated at 37 °C in a humidified atmosphere of 5% CO2.
# (§2) The CCD-18Co, SW620, LoVo and HCT116 cell lines were plated in 96-well plates at a density of 10^4 cells/well for 24 h to allow for adherence. Then, the cells were treated with the I-C19 compound for 72 h. Cell viability was evaluated by the XTT (2,3-bis[2-methoxy-4-nitro-5-sulfophenyl]-2H-tetrazolium-5-carboxyanilide) assay kit (Roche, Germany), based on to the manufacturer’s instructions. The required I-C19 concentration, which produced fifty percent cell death at 72 h, was calculated by fitting a model with Prism software (GraphPad Software, San Diego, CA, USA).
# (§3) For the assessment of dual therapy, beta radiation emission from ^131I-labeled C19 was also evaluated. The mitochondrial dehydrogenase activity in living HCT116, LoVo and SW620 cells was considered to measure the contribution of ^131I beta radiation to cell death, and the cell viability analysis was carried out after exposure to concentrations ten times lower than the IC50 obtained for each cancer cell line (8.8, 1.8 and 6.8 µM, respectively). Cell viability was evaluated by the XTT (2,3-bis[2-methoxy-4-nitro-5-sulfophenyl]-2H-tetrazolium-5-carboxyanilide) assay kit (Roche, Germany), based on to the manufacturer’s instructions. Briefly, colorectal cancer cell lines at a density of 10^4 cells/well were seeded in 96-well microtiter plates. The viability after treatment was measured 72 h (incubation in 5% CO2, 85% humidity and 37 °C). The absorbance in each well was recorded in a microplate reader (Epoch; BioTek Instruments; Winooski, VT, USA) at 450 nm. […]
# [7] = test system: LoVo; test: XTT cell viability; type: cell-based, human; conditions: 1.8 µM, 1.44 Bq/cell, 72 h
# Protocol: as §1, §2, §3
# [8] = test system: SW620; test: XTT cell viability; type: cell-based, human; conditions: SW620, 6.8 µM, 1.44 Bq/cell, 72 h
# Protocol: as §1, §2, §3
# [9] = test system: HCT116; test: Cell uptake, internalization and radiation absorbed dose to the nucleus; type: cell-based, human; conditions: for total uptake in the cell membrane (of the total radioactivity): 1.44 Bq/cell
# Protocol: (§4) The HCT116, LoVo and SW620 cells were seeded in 48-well tissue culture plates at a density of 10^5 cells/well. After 24 h, the cells were exposed to 1.44 Bq/cell of ^131I-C19 (200 μL) at 37 °C for 1, 3 and 5 h. After treatment, two washes (1 mL of ice-cold PBS) were performed. For the calculation of the cell uptake, the cells in each well were treated (at room temperature for 5 min) with 500 μL of glycine buffer (50 mM, pH 2.8). Then, this fraction was removed, and the radioactivity was measured in a NaI (Tl) detector (BCL, San Rafael CA, USA). To evaluate the ^131I-C19 internalization, the cells were incubated with 1 mL of NaOH 0.3 M (at room temperature for 10 min). Once more, the radioactivity was measured in a NaI (Tl) detector (BCL, San Rafael CA, USA). A 100% standard solution (200 μL) of ^131I-C19 was also measured (n = 5). The uptake (%) (plasmatic membrane) and internalization (%) (cytoplasm) were used to obtain the radiation absorbed dose.
# (§5) For estimation of the radiation absorbed doses to the HCT116, LoVo and SW620 cells’ nuclei, Equation (1) was used:(1) DN←source=(NCS×DFN←CS)+(NCy×DFN←Cy) where DN←source denotes the mean absorbed dose to the nucleus from source regions (i.e., cell surface—CS; cytoplasm—Cy); NCS and NCy are the total nuclear transformations occurring in the membrane and cytoplasm, respectively, calculated from the mathematical integration (from t = 0 to t = ∞) of the activity estimated in the internalization and cell uptake experiments; DFN←CS and DFN←Cy represent the dose factors specific for [^131I] from the cell surface (plasmatic membrane) and cytoplasm regions to the nucleus configuration. The dose factor geometries were obtained from S values (HCT116 cell radius = 10 μm, nucleus radius = 5 μm; LoVo and SW620 cell radius = 10 μm, nucleus radius = 6 μm).
# [10] = test system: LoVo; test: as above; type: cell-based, human; conditions: for total uptake in the cell membrane (of the total radioactivity): 1.44 Bq/cell
# Protocol: as §4, §5
# [11] = test system: SW620; test: as above; type: cell-based, human; conditions: for total uptake in the cell membrane (of the total radioactivity): 1.44 Bq/cell
# Protocol: as §4, §5
# [12] = test system: colorectal cancer cell lines; test: Cell uptake, initial; type: cell-based, human; conditions: before the 3 h increase
# Protocol: as §4
# [13] = test system: γ-H2AX foci in HCT116; test: DNA double-stranded breaks, γ-H2AX foci assay; type: cell-based, human
# Protocol: (§6) For the evaluation of DNA double-stranded breaks (DSBs), the phosphorylation of the Ser-139 gamma histone variant H2AX (γH2AX) was used as a biomarker. Cells, diluted to a suitable concentration, were grown on a glass slide after exposure to I-C19 or ^131I-labeled C19 (1.8, 6.8 and 8.8 µM for the cell lines LoVo, SW620 and HCT116, respectively) for 3 h. The anti-phospho-histone H2A.X (ser139) (1:200; CST, Boston, MA, USA) antibody was used as the primary antibody. The Alexa-488-conjugated anti-rabbit IgG was used for the visualization of γH2AX. […] To quantify the foci, clear and easily distinguishable dots were counted. At least 30 cells were imaged per slide, and the average number of foci per cell was calculated.
# [14] = test system: γ-H2AX foci in LoVo; test: DNA double-stranded breaks, γ-H2AX foci assay; type: cell-based, human; conditions: 1.8 µM, 3 h
# Protocol: as §6
# [15] = test system: γ-H2AX foci in SW620; test: DNA double-stranded breaks, γ-H2AX foci assay; type: cell-based, human; conditions: SW620, 6.8 µM, 3 h
# Protocol: as §6
# [16] = Biodistribution and biokinetic models; type: in vivo, Nu/Nu mice with LoVo xenograft tumors
# Protocol: ^131I-C19 was intraperitoneally injected (200 µL, 5 MBq (135 µCi/mice)) into nu/nu mice. The mice (n = 3) were euthanized at 0.5, 1, 3, 5, 24, 48, 92 and 144 h post-injection. Whole tumor, lung, liver, pancreas, spleen, kidney, large intestine (colon) and blood were rinsed and placed into pre-weighed plastic test tubes. The activity was determined in a NaI(Tl) detector (Canberra) along with three 0.5 mL aliquots of the diluted standard, representing 100% of the injected activity and used for radioactive decay correction. Mean activity values in each organ were correlated with those of the standard (representing the initial injected activity) to obtain the percentage of injected dose (% ID) at different times. The % ID values of each organ or tumor were input into the Olinda/EXM 2.0 software and adjusted to exponential functions (first-order kinetics) to obtain biokinetic models corrected by radioactive decay ( qh(t) ) (Equation (2)), which corresponded to the I-C19 compound. Likewise, the Ah(t) functions, which corresponded to the ^131I-C19 biokinetic models, were obtained considering λeff as =λB+λR , where the biological constant is represented by λB and the ^131I − radioactive decay constant is λR (Equation (3)). (2) qh(t)=Ah(t)×e^λR = Be^(−λBb)t+Ce^(−λBc)t+De^(−λBd)t (3) Ah(t)=Be^−(λBb+λR)t+Ce^−(λBc+λR)t+De^−(λBd+λR)t
compound,measurement,setting,value
"O=c1[nH]cc(F)c(=O)[nH]1 [5-Fu, 5-fluorouracil, reference compound]",frequency of micronucleated polychromatic erythrocytes (MNPCEs),[1]; 15 mg/kg single intraperitoneal injection,27 ± 4
"COc1ccc(CN[C@@H](C)C(=O)Nc2cc(Cl)ccc2Cl)cc1OC [C19, (2S)-N-(2,5-dichlorophenyl)-2-[(3,4-dimethoxyphenyl)methylamine]propanamide]",percentage of colon adenocarcinoma,[2]; 30 mg/kg intraperitoneally every day for 12 days (vehicle 7–8%),5–6%
same,"CEA marker, IHC","[2]; 30 mg/kg, 12 days (vehicle 65%)",12.5 % of neoplastic tissue
same,IC50,[3],60.8 µM
same,frequency of micronucleated polychromatic erythrocytes (MNPCEs),"[1]; 30 mg/kg single intraperitoneal injection, not significant",12 ± 1
"O=P1(N(CCCl)CCCl)NCCCO1 (stereo not drawn) [CP, Cyclophosphamide]",induction of micronuclei,[4],strong
[125I-].[Na+] [Na[^125I]],activity in tumor tissue,[5],9.1 % ID/g
COc1ccc(CNC(C)C(=O)Nc2cc([131I])ccc2[131I])cc1OC (stereo not drawn) [^131I-C19],cell viability compared to unlabeled I-C19 at the same concentration,[6],viability significantly decreased
same,cell viability compared to unlabeled I-C19 at the same concentration,[7],viability significantly decreased
same,cell viability compared to unlabeled I-C19 at the same concentration,[8],viability significantly decreased
same,internalized activity into the cytoplasm,"[9]; HCT116, 3 h",2.45 ± 0.21%
same,total uptake in the cell membrane (of the total radioactivity),"[9]; HCT116, 3 h",43.6 ± 4.7%
same,internalized activity into the cytoplasm,"[9]; HCT116, 5 h",1.63 ± 0.05%
same,total uptake in the cell membrane (of the total radioactivity),"[9]; HCT116, 5 h",1.63 ± 0.34%
same,internalized activity into the cytoplasm,[10]; 3 h,2.90 ± 0.82%
same,total uptake in the cell membrane (of the total radioactivity),[10]; 3 h,40.2 ± 6.4%
same,internalized activity into the cytoplasm,[10]; 5 h,0.30 ± 0.04%
same,total uptake in the cell membrane (of the total radioactivity),[10]; 5 h,1.80 ± 0.18%
same,internalized activity into the cytoplasm,"[11]; SW620, 3 h",2.66 ± 0.30%
same,total uptake in the cell membrane (of the total radioactivity),"[11]; SW620, 3 h",45.6 ± 6.7%
same,internalized activity into the cytoplasm,"[11]; SW620, 5 h",1.44 ± 0.14%
same,total uptake in the cell membrane (of the total radioactivity),"[11]; SW620, 5 h",25.62 ± 4.71%
same,initial uptake,[12],3.28–3.6%
same,"γ-H2AX foci, ^131I-C19 vs. I-C19 at the same concentration","[13]; HCT116, 8.8 µM, 3 h",almost three times more γ-H2AX foci
same,level of DSBs relative to the control,"[13]; HCT116, exposure to ^131I beta radiation",six times higher than the control
same,"γ-H2AX foci increase, ^131I-C19 vs. I-C19 at the same concentration",[14],2.1 times
same,"γ-H2AX foci increase, ^131I-C19 vs. I-C19 at the same concentration",[15],2.3 times
same,activity concentration in the tumor tissue,"[16]; LoVo tumor, after 1 h",4.4 % ID/g
same,route of excretion,"[16]; biodistribution, 5 MBq intraperitoneal",renal and hepatobiliary excretion
same,remaining fraction of activity cleared slowly from the blood,"[16]; intraperitoneal, fitted biexponential model",10.2%
